Measurements reported in patent US20140187784A1, “RADIOACTIVE QUINOLINONE DERIVATIVE AND PHARMACEUTICAL DRUG COMPRISING THE SAME” (Nihon Medi-Physics Co., Ltd., priority 2012, published 2014).

Experiment: Pharmacokinetic and distribution experiment (radioactivity in blood and excised organs after tail vein injection)
Format: in vivo
Details: ddy mice; for Adrenal gland/Blood ratio / Radioactivity Distribution, Blood / Radioactivity Distribution, Femur / Radioactivity Distribution, Heart / Radioactivity Distribution, Large intestine / Radioactivity Distribution, Lung / Radioactivity Distribution, Small intestine / Radioactivity Distribution, Spleen / Radioactivity Distribution, Stomach / Adrenal gland/Kidney ratio / Radioactivity Distribution, Adrenal gland / Radioactivity Distribution, Kidney / Radioactivity Distribution, Liver / Radioactivity Distribution, Pancreas / Adrenal gland/Liver ratio: tail vein injection; for Adrenal gland/Blood ratio / Radioactivity Distribution, Blood / Radioactivity Distribution, Femur / Radioactivity Distribution, Heart / Radioactivity Distribution, Large intestine / Radioactivity Distribution, Lung / Radioactivity Distribution, Small intestine / Radioactivity Distribution, Spleen / Radioactivity Distribution, Stomach: 14.8 kBq (4 μCi); for Adrenal gland/Kidney ratio / Radioactivity Distribution, Adrenal gland / Radioactivity Distribution, Kidney / Radioactivity Distribution, Liver / Radioactivity Distribution, Pancreas: 14.8 kBq
Description: (§1) The HPLC fraction of [^125I]PAY15 obtained in Example 3 was concentrated and then diluted with saline. The resulting solution was used in administration. 100 μL of the solution (18.5 kBq (0.5 μCi)) was injected to the tail vein of each of five ddy mice (6 weeks old). Five minutes later, each mouse was decapitated, and blood was collected. Then, organs (adrenal gland, pancreas, heart, lung, stomach, small intestine, large intestine, liver, spleen, kidney, and thyroid gland) were excised. After measurement of their weights, the radioactivities of blood and each excised organ were measured. Also, the point in time when each mouse was decapitated was changed to 5, 15, 30, 60, and 120 minutes later to perform similar operation.
The HPLC fraction of [^125I]PAY21 obtained in Example 6 was concentrated and then diluted with saline. The resulting solution was used in administration to perform the same operation as in Evaluation 1.
as §1, with “[^18F]PAY27 obtained” for “The HPLC fraction of [^125I]PAY15 obtained”, “Example 10” for “Example 3”, “was” for “was concentrated and then”, “solution (14.8” for “solution (18.5”, “kBq (4” for “kBq (0.5”, “and thigh bone)” for “and thyroid gland)”
as §1, with “[^18F]PAY54 obtained” for “The HPLC fraction of [^125I]PAY15 obtained”, “Example 13” for “Example 3”, “was” for “was concentrated and then”, “solution (14.8” for “solution (18.5”, “kBq (4” for “kBq (0.5”, “and thigh bone)” for “and thyroid gland)”

O=C1CCc2cc(-c3cncc(OCC[18F])c3)cc3c2N1CCC3 [[^18F]PAY27, 9-(5-(2-[^18F]fluoroethyloxy)pyridin-3-yl)-1,2,6,7-tetrahydro-5H-pyrido[3,2,1-ij]quinolin-3-one]
radioactivity accumulation in the adrenal gland compared with blood and periadrenal tissues (at 60 minutes after administration): high radioactivity accumulation | Adrenal gland/Blood ratio (5 min): 1.11 ± 0.17 | Radioactivity Distribution, Blood (5 min): 4.0 ± 0.3 % dose/g | Radioactivity Distribution, Femur (5 min): 1.8 ± 0.1 % dose/g | Radioactivity Distribution, Heart (5 min): 3.9 ± 0.3 % dose/g | Radioactivity Distribution, Large intestine (5 min): 2.5 ± 0.2 % dose/g | Radioactivity Distribution, Lung (5 min): 3.7 ± 0.4 % dose/g | Radioactivity Distribution, Small intestine (5 min): 5.0 ± 0.4 % dose/g | Radioactivity Distribution, Spleen (5 min): 3.0 ± 0.2 % dose/g | Radioactivity Distribution, Stomach (5 min): 5.1 ± 0.4 % dose/g | Adrenal gland/Blood ratio (15 min): 0.83 ± 0.12 | Radioactivity Distribution, Blood (15 min): 4.1 ± 0.2 % dose/g | Radioactivity Distribution, Femur (15 min): 2.3 ± 0.1 % dose/g | Radioactivity Distribution, Heart (15 min): 3.6 ± 0.2 % dose/g | Radioactivity Distribution, Large intestine (15 min): 5.0 ± 0.4 % dose/g | Radioactivity Distribution, Lung (15 min): 3.6 ± 0.1 % dose/g | Radioactivity Distribution, Small intestine (15 min): 6.7 ± 0.6 % dose/g | Radioactivity Distribution, Spleen (15 min): 2.8 ± 0.2 % dose/g | Radioactivity Distribution, Stomach (15 min): 5.6 ± 1.1 % dose/g | Adrenal gland/Blood ratio (30 min): 0.88 ± 0.18 | Radioactivity Distribution, Blood (30 min): 3.6 ± 0.3 % dose/g | Radioactivity Distribution, Femur (30 min): 2.4 ± 0.2 % dose/g | Radioactivity Distribution, Heart (30 min): 3.2 ± 0.4 % dose/g | Radioactivity Distribution, Large intestine (30 min): 6.1 ± 0.4 % dose/g | Radioactivity Distribution, Lung (30 min): 2.7 ± 0.2 % dose/g | Radioactivity Distribution, Small intestine (30 min): 5.9 ± 0.5 % dose/g | Radioactivity Distribution, Spleen (30 min): 2.3 ± 0.1 % dose/g | Radioactivity Distribution, Stomach (30 min): 5.5 ± 0.4 % dose/g | Adrenal gland/Blood ratio (60 min): 1.43 ± 0.47 | Radioactivity Distribution, Blood (60 min): 3.3 ± 0.1 % dose/g | Radioactivity Distribution, Femur (60 min): 3.9 ± 0.2 % dose/g | Radioactivity Distribution, Heart (60 min): 3.0 ± 0.2 % dose/g | Radioactivity Distribution, Large intestine (60 min): 7.0 ± 0.6 % dose/g | Radioactivity Distribution, Lung (60 min): 2.6 ± 0.2 % dose/g | Radioactivity Distribution, Small intestine (60 min): 6.0 ± 0.7 % dose/g | Radioactivity Distribution, Spleen (60 min): 2.2 ± 0.2 % dose/g | Radioactivity Distribution, Stomach (60 min): 4.1 ± 0.9 % dose/g | Adrenal gland/Blood ratio (120 min): 0.58 ± 0.44 | Radioactivity Distribution, Blood (120 min): 2.8 ± 0.5 % dose/g | Radioactivity Distribution, Femur (120 min): 6.4 ± 0.4 % dose/g | Radioactivity Distribution, Heart (120 min): 2.4 ± 0.3 % dose/g | Radioactivity Distribution, Large intestine (120 min): 9.1 ± 1.4 % dose/g | Radioactivity Distribution, Lung (120 min): 2.1 ± 0.1 % dose/g | Radioactivity Distribution, Small intestine (120 min): 3.1 ± 0.6 % dose/g | Radioactivity Distribution, Spleen (120 min): 1.8 ± 0.2 % dose/g | Radioactivity Distribution, Stomach (120 min): 3.9 ± 0.6 % dose/g | Adrenal gland/Kidney ratio (5 min): 1.00 ± 0.19 | Radioactivity Distribution, Adrenal gland (5 min): 4.5 ± 0.8 % dose/g | Radioactivity Distribution, Kidney (5 min): 4.5 ± 0.3 % dose/g | Radioactivity Distribution, Liver (5 min): 6.5 ± 1.0 % dose/g | Radioactivity Distribution, Pancreas (5 min): 3.0 ± 0.4 % dose/g | Adrenal gland/Kidney ratio (15 min): 0.99 ± 0.23 | Radioactivity Distribution, Adrenal gland (15 min): 3.4 ± 0.5 % dose/g | Radioactivity Distribution, Kidney (15 min): 3.5 ± 0.3 % dose/g | Radioactivity Distribution, Liver (15 min): 5.1 ± 0.3 % dose/g | Radioactivity Distribution, Pancreas (15 min): 2.5 ± 0.2 % dose/g | Adrenal gland/Kidney ratio (30 min): 1.40 ± 0.28 | Radioactivity Distribution, Adrenal gland (30 min): 3.2 ± 0.6 % dose/g | Radioactivity Distribution, Kidney (30 min): 2.3 ± 0.2 % dose/g | Radioactivity Distribution, Liver (30 min): 4.1 ± 0.5 % dose/g | Radioactivity Distribution, Pancreas (30 min): 2.0 ± 0.1 % dose/g | Adrenal gland/Kidney ratio (60 min): 1.88 ± 0.55 | Radioactivity Distribution, Adrenal gland (60 min): 4.7 ± 1.7 % dose/g | Radioactivity Distribution, Kidney (60 min): 2.5 ± 0.4 % dose/g | Radioactivity Distribution, Liver (60 min): 3.7 ± 0.3 % dose/g | Radioactivity Distribution, Pancreas (60 min): 2.0 ± 0.1 % dose/g | Adrenal gland/Kidney ratio (120 min): 0.99 ± 0.77 | Radioactivity Distribution, Adrenal gland (120 min): 2.2 ± 1.2 % dose/g | Radioactivity Distribution, Kidney (120 min): 1.7 ± 0.1 % dose/g | Radioactivity Distribution, Liver (120 min): 2.9 ± 0.5 % dose/g | Radioactivity Distribution, Pancreas (120 min): 1.5 ± 0.2 % dose/g | Adrenal gland/Liver ratio (5 min): 0.70 ± 0.16 | Adrenal gland/Liver ratio (15 min): 0.67 ± 0.06 | Adrenal gland/Liver ratio (30 min): 0.79 ± 0.20 | Adrenal gland/Liver ratio (60 min): 1.26 ± 0.37 | Adrenal gland/Liver ratio (120 min): 0.58 ± 0.46
